This note sets out measurements from US10239832B2, “N-(1-hydroxy-3-(pyrrolidinyl)propan-2-yl)pyrrolidine-3-carboxamide derivatives as glucosylceramide synthase inhibitors” (BIOMARIN PHARMACEUTICAL INC., priority 2013, dated 2019).

For this assay, the target named is T1, GCS (Canis lupus familiaris, UniProt A0A8I3MXG6).
T1 construct: endogenous in cells; host or cells: MDCK (Madin-Darby canine kidney) cells, whole-cell lysate
T1 sequence (A0A8I3MXG6 1-394): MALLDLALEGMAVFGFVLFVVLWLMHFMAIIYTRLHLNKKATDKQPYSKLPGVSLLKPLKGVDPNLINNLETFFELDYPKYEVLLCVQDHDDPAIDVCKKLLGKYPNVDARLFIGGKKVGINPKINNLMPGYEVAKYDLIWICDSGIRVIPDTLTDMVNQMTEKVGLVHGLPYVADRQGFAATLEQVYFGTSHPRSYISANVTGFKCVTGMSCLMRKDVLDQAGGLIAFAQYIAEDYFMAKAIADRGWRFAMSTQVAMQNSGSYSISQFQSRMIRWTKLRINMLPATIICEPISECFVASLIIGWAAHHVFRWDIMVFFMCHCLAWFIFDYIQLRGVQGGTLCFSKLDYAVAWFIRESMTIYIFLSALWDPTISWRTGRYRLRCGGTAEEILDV
Nature of the assay: GCS enzymatic assay (MDCK cell lysate, NBD-ceramide to glucosylceramide, LC/MS). Format: biochemical, canine. Conditions: Table 2; class symbols A, B, C; the table does not say which of the assays; read-out: Data Range (IC50 values). The method in brief: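 Dog MDCK cell lysate served as enzyme source, with NBD-ceramide turned over to glucosylceramide and 0.1% DMSO as mock control. The reaction was stopped with acetonitrile. Both lipids were quantified by LC/MS/MS in ESI positive MRM mode against a tolbutamide internal standard, giving IC50 or percent inhibition.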

In general, IC50 refers to the point on the concentration scale where inhibition reaches its midpoint. As to `CC(C)(C)c1ccc(N2CC[C@@H](C(=O)N[C@H](CN3CCCC3)[C@H](O)c3cc(F)c4c(c3)OCCO4)C2)cc1` [Compound 142, (R)-1-(4-(tert-butyl)phenyl)-N-((1R,2R)-1-(8-fluoro-2,3-dihydrobenzo[b][1,4]dioxin-6-yl)-1-hydroxy-3-(pyrrolidin-1-yl)propan-2-yl)pyrrolidine-3-carboxamide], the IC50 lay in the range of 30 to 100 nM.

In the case of `O=C(N[C@H](CN1CCCC1)[C@H](O)c1ccc2c(c1)OC=CO2)[C@@H]1CCN(c2ccc(Cl)cc2)C1` [Compound 143, (R)-N-((1R,2R)-1-(benzo[b][1,4]dioxin-6-yl)-1-hydroxy-3-(pyrrolidin-1-yl)propan-2-yl)-1-(4-chlorophenyl)pyrrolidine-3-carboxamide], the IC50 lay in the range of 1 to 30 nM.

For `O=C(N[C@H](CN1CCCC1)[C@H](O)c1cc(F)c2c(c1)OCCO2)[C@@H]1CCN(c2ccc(Cl)c(-c3ccc(F)cc3)n2)C1` [Compound 144, (R)-1-(5-chloro-6-(4-fluorophenyl)pyridin-2-yl)-N((1R,2R)-1-(8-fluoro-2,3-dihydrobenzo[b][1,4]dioxin-6-yl)-1-hydroxy-3-(pyrrolidin-1-yl)propan-2-yl)pyrrolidine-3-carboxamide], the IC50 was in the range of 1 to 30 nM.

As to `O=C(N[C@H](CN1CCCC1)[C@H](O)c1ccc(SC2CC2)c(Cl)c1)[C@@H]1CCN(c2ccc(Cl)cc2)C1` [Compound 145, (R)-N-((1R,2R)-1-(3-chloro-4-(cyclopropylthio)phenyl)-1-hydroxy-3-(pyrrolidin-1-yl)propan-2-yl)-1-(4-chlorophenyl)pyrrolidine-3-carboxamide], the concentration for half-maximal inhibition (IC50) lay in the range of 1 to 30 nM.

As to `O=C(N[C@H](CN1CCCC1)[C@H](O)c1ccc(OC2CC2)c(Cl)c1)[C@@H]1CCN(c2ccc(Cl)c(-c3ccc(F)cc3)n2)C1` [Compound 146, (R)-N-((1R,2R)-1-(3-chloro-4-cyclopropoxyphenyl)-1-hydroxy-3-(pyrrolidin-1-yl)propan-2-yl)-1-(5-chloro-6-(4-fluorophenyl)pyridin-2-yl)pyrrolidine-3-carboxamide], the IC50 fell in the range of 1 to 30 nM.

As for `C=COc1ccc([C@@H](O)[C@@H](CN2CCCC2)NC(=O)[C@@H]2CCN(c3ccc(Cl)cc3)C2)cc1Cl` [Compound 147, (R)-N-((1R,2R)-1-(3-chloro-4-(vinyloxy)phenyl)-1-hydroxy-3-(pyrrolidin-1-yl)propan-2-yl)-1-(4-chlorophenyl)pyrrolidine-3-carboxamide], the half-maximal inhibitory concentration (IC50) lay within 1 to 30 nM.

For the compound `O=C(N[C@H](CN1CCCC1)[C@H](O)c1ccc(OC2CC2)cc1)[C@@H]1CCN(c2ccc(F)cc2)C1` [Compound 148, (R)-N-((1R,2R)-1-(4-cyclopropoxyphenyl)-1-hydroxy-3-(pyrrolidin-1-yl)propan-2-yl)-1-(4-fluorophenyl)pyrrolidine-3-carboxamide], the IC50 fell in the range of 1 to 30 nM.

For the compound `O=C(N[C@H](CN1CCCC1)[C@H](O)c1ccc(OC2CC2)cc1)[C@@H]1CCN(c2ccccc2)C1` [Compound 149, (R)-N-((1R,2R)-1-(4-cyclopropoxyphenyl)-1-hydroxy-3-(pyrrolidin-1-yl)propan-2-yl)-1-phenylpyrrolidine-3-carboxamide], the IC50 was in the range of 1 to 30 nM.

`O=C(N[C@H](CN1CCCC1)[C@H](O)c1ccc(OC2CC2)c(Cl)c1)[C@@H]1CCN(c2ccccc2)C1` [Compound 150, (R)-N-((1R,2R)-1-(3-chloro-4-cyclopropoxyphenyl)-1-hydroxy-3-(pyrrolidin-1-yl)propan-2-yl)-1-phenylpyrrolidine-3-carboxamide]: the IC50 was in the range of 1 to 30 nM.

Regarding `O=C(N[C@H](CN1CCCC1)[C@H](O)c1ccc(OC2CC2)c(F)c1)[C@@H]1CCN(c2ccccc2)C1` [Compound 151, (R)-N-((1R,2R)-1-(4-cyclopropoxy-3-fluorophenyl)-1-hydroxy-3-(pyrrolidin-1-yl)propan-2-yl)-1-phenylpyrrolidine-3-carboxamide], the IC50 fell in the range of 1 to 30 nM.

For `N#Cc1ccc(N2CC[C@@H](C(=O)N[C@H](CN3CCCC3)[C@H](O)c3ccc(OC4CC4)c(Cl)c3)C2)cc1` [Compound 152, (R)-N-((1R,2R)-1-(3-chloro-4-cyclopropoxyphenyl)-1-hydroxy-3-(pyrrolidin-1-yl)propan-2-yl)-1-(4-cyanophenyl)pyrrolidine-3-carboxamide], the IC50 fell in the range of 100 to 1000 nM.

Consider `Cc1ccc(N2CC[C@@H](C(=O)N[C@H](CN3CCCC3)[C@H](O)c3ccc(OC4CC4)c(Cl)c3)C2)cc1` [Compound 153, (R)-N-((1R,2R)-1-(3-chloro-4-cyclopropoxyphenyl)-1-hydroxy-3-(pyrrolidin-1-yl)propan-2-yl)-1-(p-tolyl)pyrrolidine-3-carboxamide], for which the half-maximal inhibitory concentration (IC50) lay in the range of 1 to 30 nM.

`O=C(N[C@H](CN1CCCC1)[C@H](O)c1cc(F)c2c(c1)OCCO2)[C@]1(O)CCN(c2ccc(Cl)cc2)C1` [Compound 154, (S)-1-(4-chlorophenyl)-N-((1R,2R)-1-(8-fluoro-2,3-dihydrobenzo[b][1,4]dioxin-6-yl)-1-hydroxy-3-(pyrrolidin-1-yl)propan-2-yl)-3-hydroxypyrrolidine-3-carboxamide]: the IC50 is 1 to 30 nM.

Regarding `O=C(N[C@H](CN1CCCC1)[C@H](O)c1cc(F)c2c(c1)OCCO2)[C@@]1(O)CCN(c2ccc(Cl)cc2)C1` [Compound 154C, (R)-1-(4-chlorophenyl)-N-((1R,2R)-1-(8-fluoro-2,3-dihydrobenzo[b][1,4]dioxin-6-yl)-1-hydroxy-3-(pyrrolidin-1-yl)propan-2-yl)-3-hydroxypyrrolidine-3-carboxamide], the half-maximal inhibitory concentration (IC50) lay within 100 to 1000 nM.

Consider `O=C(N[C@H](CN1CCCC1)[C@H](O)c1ccc(OC2CC2)cc1)[C@@H]1CCN(c2ccc(Cl)cc2)C1` [Compound 155, (R)-1-(4-chlorophenyl)-N-((1R,2R)-1-(4-cyclopropoxyphenyl)-1-hydroxy-3-(pyrrolidin-1-yl)propan-2-yl)pyrrolidine-3-carboxamide], for which the IC50 lay within 1 to 30 nM.

As for `O=C(N[C@H](CN1CCCC1)[C@H](O)c1ccc(Cl)cc1)[C@@H]1CCN(c2ccc(Cl)cc2)C1` [Compound 156, (R)-1-(4-chlorophenyl)-N((1R,2R)-1-(4-chlorophenyl)-1-hydroxy-3-(pyrrolidin-1-yl)propan-2-yl)pyrrolidine-3-carboxamide], the IC50 fell in the range of 100 to 1000 nM.

Regarding `O=C(N[C@H](CN1CCCC1)[C@H](O)c1ccc(OC2CC2)cc1)[C@@H]1CCN(c2ccc3ccsc3c2)C1` [Compound 157, (R)-1-(benzo[b]thiophen-6-yl)-N-((1R,2R)-1-(4-cyclopropoxyphenyl)-1-hydroxy-3-(pyrrolidin-1-yl)propan-2-yl)pyrrolidine-3-carboxamide], the IC50 is 1 to 30 nM.

In the case of `O=C(N[C@H](CN1CCC1)[C@H](O)c1ccc(OC2CC2)cc1)[C@@H]1CCN(c2ccc3ccsc3c2)C1` [Compound 158, (R)-N-((1R,2R)-3-(azetidin-1-yl)-1-(4-cyclopropoxyphenyl)-1-hydroxypropan-2-yl)-1-(benzo[b]thiophen-6-yl)pyrrolidine-3-carboxamide], the IC50 fell in the range of 30 to 100 nM.

With `O=C(N[C@H](CN1CCC1)[C@H](O)c1ccc(OC2CC2)cc1)[C@@H]1CCN(c2ccc3cc(F)ccc3c2)C1` [Compound 159, (R)-N-((1R,2R)-3-(azetidin-1-yl)-1-(4-cyclopropoxyphenyl)-1-hydroxypropan-2-yl)-1-(6-fluoronaphthalen-2-yl)pyrrolidine-3-carboxamide], the IC50 lay within 30 to 100 nM.

On to `O=C(N[C@H](CN1CCC1)[C@H](O)c1ccc(OC2CC2)cc1)[C@H]1CCN(c2ccc3cc(F)ccc3c2)C1` [Compound 159C, (S)-N-((1R,2R)-3-(azetidin-1-yl)-1-(4-cyclopropoxyphenyl)-1-hydroxypropan-2-yl)-1-(6-fluoronaphthalen-2-yl)pyrrolidine-3-carboxamide], for which the half-inhibitory concentration (IC50) was in the range of 100 to 1000 nM.

For `O=C(N[C@H](CN1CCCC1)[C@H](O)c1ccc(OC(F)F)cc1)[C@@H]1CCN(c2ccc(Cl)cc2)C1` [Compound 160, (R)-1-(4-chlorophenyl)-N-((1R,2R)-1-(4-(difluoromethoxy)phenyl)-1-hydroxy-3-(pyrrolidin-1-yl)propan-2-yl)pyrrolidine-3-carboxamide], the IC50 was in the range of 30 to 100 nM.

Turning to `O=C(N[C@H](CN1CCCC1)[C@H](O)c1ccc(OC(F)F)cc1)[C@@H]1CCN(c2ccccc2)C1` [Compound 161, (R)-N-((1R,2R)-1-(4-(difluoromethoxy)phenyl)-1-hydroxy-3-(pyrrolidin-1-yl)propan-2-yl)-1-phenylpyrrolidine-3-carboxamide], the IC50 lay within 1 to 30 nM.

Take `O=C(N[C@H](CN1CCCC1)[C@H](O)c1ccc(OC2CC2)cc1)[C@@H]1CCN(c2ccc3cc(F)ccc3c2)C1` [Compound 162, (R)-N-((1R,2R)-1-(4-cyclopropoxyphenyl)-1-hydroxy-3-(pyrrolidin-1-yl)propan-2-yl)-1-(6-fluoronaphthalen-2-yl)pyrrolidine-3-carboxamide]: the IC50 was in the range of 1 to 30 nM.
